Measurements as given in US6496728B2, “Methods for extracting substances using alternating current” (University of Utah Research Foundation, priority 2000, dated 2002).

How the values were obtained:
[1] = Constant current DC iontophoretic transport across human epidermal membrane in side-by-side diffusion cell
Protocol: Iontophoretic transport studies were carried out in a side-by-side two-chamber diffusion cell (diffusional surface area of around 0.8 cm^2 and chamber volume of 2 mL) with HEM at 37° C. The apparent permeability coefficients (P) in each experiment were calculated by: [formula]
where A is the membrane surface area, t is time, Q is the amount of permeant transported into the receiver chamber, and CD is the concentration of permeant in the donor chamber. The pH of the solutions in the donor and receiver chambers was checked after each iontophoresis run to detect possible water hydrolysis.
Constant current DC transport experiments were carried out at the current level of 0.13 mA/cm^2 using a constant current iontophoretic device (phoresor II Auto, Model No. PM 850, Iomed, Inc., Salt Lake City, Utah) with Ag—AgCl electrodes. […] HEM resistance during iontophoresis was measured by monitoring the electrical potential drop across the membrane using two flexible Luggin capillaries which were inserted into the donor and receiver compartments of the diffusion cells. Each of the Luggin capillaries contained a calomel electrode connected to a voltmeter. The HEM resistance could be determined during iontophoresis according the output current level and the voltmeter readings.
A trace amount of [^14C] […] One ml of sample was taken from the receiver chamber approximately every 30 minutes and replaced with the fresh PBS. A 10 μl sample was taken from the donor chamber every hour. Samples were mixed with 10 ml scintillation cocktail (Ultima Gold™, Packard Instrument Co., Meriden, Conn.) and assayed by a dual-labeled liquid scintillation counter (Parkard TriCarb™ Model 1900 TR Liquid Scintillation Analyzer).

[2] = AC + DC offset iontophoretic transport across human epidermal membrane in side-by-side diffusion cell; format: in vitro ADME
Text: The output AC voltage was manually adjusted between 3 to 8 volts to keep the skin resistance at 2 kΩ (±10%) and the DC offset value was kept constant at 0.25 V during the entire period of the experiment. The same permeants and sampling protocol were used as described in the Constant Current Session.

[3] = AC without DC offset (AC + passive) transport across human epidermal membrane in side-by-side diffusion cell; format: in vitro ADME; details: target skin resistance 2 kΩ; for Papp: all data points from 100 to 330 min
Text: The same protocol was used to reduce the skin electrical resistance to 2 kΩ as described in the AC+DC Offset method. […] Permeants and sampling protocol were the same as in the Constant Current and AC+DC Offset sessions as described above.

[4] = 0.13 mA/cm^2 DC, data points between 100 and 330 minutes
[5] = AC + DC, 50 Hz, DC offset 250 mV, target skin resistance 2 kΩ, data points between 100 and 330 minutes

| Structure (SMILES) | Slope of normalized mannitol flux versus time (linear regression) [1, 4] | Rate of change of mannitol flux, fold higher with constant current DC than with AC without DC Offset ([1]; constant current DC versus AC without DC Offset) | Rate of change of mannitol flux, fold higher with constant current DC than with AC+DC Offset ([1]; constant current DC versus AC+DC Offset) | Papp ([1]; human) | Papp at 180 min ([1]; human) | Slope of normalized mannitol flux versus time (linear regression) [2, 5] | Rate of change of mannitol flux, lower with AC+DC Offset method compared with AC without DC Offset method ([2]; AC+DC Offset versus AC without DC Offset) | Papp ([2]; human, AC (50 Hz) with 0.25 V DC offset, target skin resistance 2 kΩ, all data points from 100 to 330 min, 36 points (6 skin samples), read-out: Mannitol permeability coefficient, mean) | Papp at 180 min ([2]; human, AC (50 Hz) with 0.25 V DC offset, target skin resistance 2 kΩ, one time point (180 min), 6 samples, read-out: Mannitol permeability coefficient, mean) | Slope of normalized mannitol flux versus time (linear regression) ([3]; AC 50 Hz, no DC offset, data points between 100 and 330 minutes) | Papp ([3]; human, AC (50 Hz) w/o DC offset, 28 points (4 skin samples), read-out: Mannitol permeability coefficient, mean) | Papp at 180 min ([3]; human, AC (50 Hz) w/o DC offset, one time point (180 min), 4 samples, read-out: Mannitol permeability coefficient, mean) | Slope of normalized TEA^+ flux versus time (linear regression) [1, 4] | Slope of normalized TEA^+ flux versus time (linear regression) [2, 5] | Papp ([3]; human, AC (50 Hz) w/o DC offset, 28 points (4 samples), read-out: TEA^+ permeability coefficient, mean) |
| --- | --- | --- | --- | --- | --- | --- | --- | --- | --- | --- | --- | --- | --- | --- | --- |
| OC[C@@H](O)[C@@H](O)[C@H](O)[C@H](O)CO [Mannitol, mannitol] | 4 × 10^−10 cm sec^−1 min^−1 | 5.7 fold | 10 fold | 0.16 ×10⁻⁶ cm/s | 0.15 ×10⁻⁶ cm/s | 4 × 10^−11 cm sec^−1 min^−1 | 57% | 0.16 ×10⁻⁶ cm/s | 0.17 ×10⁻⁶ cm/s | 7 × 10^−11 cm sec^−1 min^−1 | 0.0985 ×10⁻⁶ cm/s | 0.101 ×10⁻⁶ cm/s | – | – | – |
| CC[N+](CC)(CC)CC.[Br-] [TEA^+, tetraethylammonium bromide] | – | – | – | – | – | – | – | – | – | – | – | – | 6 × 10^−9 cm sec^−1 min^−1 | 2 × 10^−9 cm sec^−1 min^−1 | 1.08 ×10⁻⁶ cm/s |
